Experiment [1] has as its system antiserum raised to Immunogen I. Put plainly: Competitive ELISA with IgG fraction of antiserum raised to Immunogen I (second bleed) and hapten 1-HRP detecting agent. Type of experiment: binding, sheep. As for the experimental part: (§1) The wells of an enhanced binding 96 well polystyrene microtiter plate were coated with IgG fraction of antiserum raised to Immunogen I or II, diluted in 10 mM Tris, pH 8.5 (125 μl/well). The appropriate antibody coating dilution was determined using standard ELISA checkerboard techniques. The plate was incubated overnight at 4° C., washed 4 times over 10 minutes with Tris buffered saline containing Tween20 (TBST) and tapped dry. Standard solutions (UR-144 N-pentanoic acid) were applied at 0, 0.625, 1.25, 2.5, 5, 10, 20 and 40 ng/ml and 50 μl of each was added to the appropriate wells. 75 μl of conjugate (appropriate hapten-HRP) diluted in Tris buffer (pH 7.2) containing EDTA, D-mannitol, sucrose, thimerosol and BSA, was added to each of the wells. The appropriate dilution of conjugate was also determined using standard ELISA checkerboard techniques. The plate was incubated at 25° C. for 1 hour. Excess unbound conjugate was removed by washing 6 times over a ten minute period with TBST. 125 μl of tetramethylbenzidine (TMB) substrate solution was added to each well of the plate that was then incubated for 20 minutes in the dark at room temperature. The reaction was terminated by addition of 125 μl of 0.2 M H2SO4 to each well. The absorbance was then measured at 450 nm using a microtiter plate reader. The data are inputted to a computer program called ‘KC Junior’ (Biotek). It gives a 4 parameter fit curve and allows the calculation of concentrations between the standard runs. This program is used to calculate the IC50 values by dividing the 0 ng/ml optical density (OD) value by 2 and obtaining the concentration value from the curve for this OD.
(§2) Cross-reactivity was calculated according to the following formula: % CR=IC50, UR-144 N-pentanoic acid/IC50, cross reactant×100 Where % CR is the percentage cross-reactivity, IC50, UR-144 N-pentanoic acid is the concentration of UR-144 N-pentanoic acid that causes 50% displacement of signal and IC50, cross reactant is the concentration of the cannabinoid/metabolite/selected molecule that causes 50% displacement of signal.
In order to determine the specificity of the competitive ELISAs, standard solutions of a range of structurally related synthetic cannabinoids and their metabolites were prepared in TBST (Tris-Buffered Saline and Tween 20). Using the calibration curves generated and employing a single level of cross reactants, these were used to determine the cross-reactivity of the immunoassays with these substances.
In general terms: In an ELISA, binding on a coated surface is turned into a signal by an enzyme label.

Experiment [2] shares this test system. Put plainly: UR144/XLR11 Synthetic Cannabinoids (Spice) ELISA, antiserum raised to Immunogen I (third bleed). Type of experiment: binding, sheep. The following applies: for Concentration of compounds that elicit a negative response: Table 4, negative response at this concentration; for % Cross-Reactivity: Table 4, relative to UR144 N-Pentanoic Acid = 100. The method, then: as §1, §2
A further assay was carried out in accordance with the protocol described in Example 9 using Immunogen I.

Setting [3] is: Table 2, cross-reactant at 100 ng/ml (single level).
Setting [4] is: Table 2, cross-reactant tested at 100 ng/ml.
Setting [5] is: Table 2, cross-reactant tested at 100 ng/ml, relative to UR-144 N-pentanoic acid.
[6] abbreviates: Table 1, B = absorbance at 450 nm at x ng/ml standard, B0 at 0 ng/ml, second bleed.
Where [7] appears, read: Table 1, CR based on 100% for UR-144 N-pentanoic acid.
[8] abbreviates: Table 1, standard concentration which produces 50% B/B0, second bleed.

Each structure is given as a SMILES string.

For orientation: IC50 means the concentration that gives 50% inhibition.

In the case of `O=C(c1ccccc1I)c1cn(CCCCCF)c2ccccc12` [AM694], the “% B/BO” value in experiment [1] (setting [3]) is listed as 79.00%. Besides, the “IC50” value in experiment [1] (setting [4]) was >0.1 µg/mL. Besides, the “% Cross-reactivity (CR)” value in experiment [1] (setting [5]) is recorded as <3.0%. The “Concentration of compounds that elicit a negative response” value (shortened to “Concentration”) in experiment [2] was 100 ng/mL.
For the compound `CN1CCCCC1Cn1cc(C(=O)c2cc([N+](=O)[O-])ccc2I)c2ccccc21` (stereo not shown) [AM1241], in experiment [1] (setting [3]), the “% B/BO” value was determined as 77.96%. Further, in experiment [1] (setting [4]), the “IC50” value was >0.1 µg/mL. Also, the “% Cross-reactivity (CR)” value in experiment [1] (setting [5]) is <3.0%. The “Concentration” value in experiment [2] worked out at 100 ng/mL.
Taken in the same sequence, the figures for `O=C(c1cccc2ccccc12)c1cn(CCCCCF)c2ccccc12` [AM2201] were 85.58%, >0.1 µg/mL, <3.0% and 100 ng/mL.
In the same order, the values of `CCCn1c(C)c(C(=O)c2cccc3ccccc23)c2ccccc21` [JWH-015] are 89.77%, >0.1 µg/mL, <3.0% and 100 ng/mL.
In the same order, the values of `CCCCCn1cc(C(=O)c2cccc3ccccc23)c2cc(O)ccc21` [JWH-018 (5 hydroxyindole)] are 94.61%, >0.1 µg/mL, <3.0% and 100 ng/mL.
In the case of `CCCCCn1cc(C(=O)c2cccc3ccccc23)c2ccc(O)cc21` [JWH-018 (6 hydroxyindole)], in experiment [1] (setting [3]), the “% B/BO” value is recorded as 93.92%. Besides, in experiment [1] (setting [4]), the “IC50” value was >0.1 µg/mL. In addition, the “% Cross-reactivity (CR)” value in experiment [1] (setting [5]) is <3.0%. For the same compound, the “Concentration” value in experiment [2] is 100 ng/mL.
Taken in the same sequence, the figures for `O=C(c1cccc2ccccc12)c1cn(CCCCCO)c2ccccc12` [JWH-018 N (5 hydroxypentyl) metabolite, 1-(5-hydroxypentyl)-1H-indol-3-yl(naphthalen-1-yl)methanone] were 87.56%, >0.1 µg/mL, <3.0% and 100 ng/mL.
In the same order, the values of `C=CCCCn1cc(C(=O)c2cccc3ccccc23)c2ccccc21` [JWH-022] are 91.83%, >0.1 µg/mL, <3.0% and 100 ng/mL.
In the case of `CC(O)CCn1cc(C(=O)c2cccc3ccccc23)c2ccccc21` (stereo not shown) [JWH-073 N-(3-hydroxybutyl) metabolite, 1-(3-hydroxybutyl)-1H-indol-3-yl(napthalen-1-yl)methanone], the “Concentration” value in experiment [2] amounted to 100 ng/mL.
On the same count and under the same terms, to `O=C(c1cccc2ccccc12)c1cn(CCCCO)c2ccccc12` [JWH-073 N-(4-hydroxybutyl) metabolite, 1-(4-hydroxybutyl)-1H-indol-3-yl(naphthalen-1-yl)methanone] belongs 100 ng/mL; to `O=C(O)CCCn1cc(-c2cccc3ccccc23)c2ccccc21` [JWH-073 N-butanoic acid metabolite, 4-(3-(1-naphthyl)-1H-indol-1-yl)butanoic acid], 100 ng/mL.
For `CCCCn1cc(C(=O)c2cccc3ccccc23)c2ccccc21` [JWH-073], the “% B/BO” value in experiment [1] (setting [3]) is given as 90.44%. Moreover, in experiment [1] (setting [4]), the “IC50” value is >0.1 µg/mL. Further, in experiment [1] (setting [5]), the “% Cross-reactivity (CR)” value is <3.0%. The “Concentration” value in experiment [2] worked out at 100 ng/mL.
Take `COc1ccc(C(=O)c2cn(CCCCCO)c3ccccc23)c2ccccc12` [JWH-081 N-(5-hydroxypentyl) metabolite]: in experiment [2], the “Concentration” value was found to be 100 ng/mL.
Regarding `CCCCCn1cc(C(=O)c2ccc(OC)c3ccccc23)c2ccccc21` [JWH-081], the “% B/BO” value in experiment [1] (setting [3]) worked out at 97.10%. Further, the “IC50” value in experiment [1] (setting [4]) was >0.1 µg/mL. For the same compound, the “% Cross-reactivity (CR)” value in experiment [1] (setting [5]) was <3.0%. In addition, in experiment [2], the “Concentration” value was 100 ng/mL.
For the compound `CCCCCn1c(C)c(C(=O)c2ccc(OC)c3ccccc23)c2ccccc21` [JWH-098], the “% B/BO” value in experiment [1] (setting [3]) turned out to be 93.94%. Further, the “IC50” value in experiment [1] (setting [4]) was >0.1 µg/mL. For the same compound, the “% Cross-reactivity (CR)” value in experiment [1] (setting [5]) is recorded as <3.0%. Besides, the “Concentration” value in experiment [2] stood at 100 ng/mL.
In the same order, the values of `CCCCCn1cc(C(=O)c2ccc(C)c3ccccc23)c2ccccc21` [JWH-122] are 97.01%, >0.1 µg/mL, <3.0% and 100 ng/mL.
Regarding `O=C(c1cccc2ccccc12)c1cn(CCN2CCOCC2)c2ccccc12` [JWH-200], the “% B/BO” value in experiment [1] (setting [3]) was 86.38%. Also, the “IC50” value in experiment [1] (setting [4]) is >0.1 µg/mL. Also, the “% Cross-reactivity (CR)” value in experiment [1] (setting [5]) is <3.0%. For the same compound, the “Concentration” value in experiment [2] is 100 ng/mL.
For `COc1ccccc1CC(=O)c1cn(CCCCCC(=O)O)c2ccccc12` [JWH-250 N-(5-carboxypentyl) metabolite], the “Concentration” value in experiment [2] is 100 ng/mL.
Still for that read-out and setting: for `COc1ccccc1CC(=O)c1cn(CCCCCO)c2ccccc12` [JWH-250 N-(5-hydroxypentyl) metabolite] the value was 100 ng/mL.
`CCCCCn1cc(C(=O)Cc2ccccc2OC)c2ccccc21` [JWH-250]: in experiment [1] (setting [3]), the “% B/BO” value is on record as 85.90%. Moreover, the “IC50” value in experiment [1] (setting [4]) is >0.1 µg/mL. Besides, the “% Cross-reactivity (CR)” value in experiment [1] (setting [5]) is <3.0%. Besides, the “Concentration” value in experiment [2] amounted to 100 ng/mL.
Turning to `CCCCCn1cc(C(=O)c2ccc(Cl)c3ccccc23)c2ccccc21` [JWH-398], the “% B/BO” value in experiment [1] (setting [3]) was 88.86%. For the same compound, the “IC50” value in experiment [1] (setting [4]) is >0.1 µg/mL. The “% Cross-reactivity (CR)” value in experiment [1] (setting [5]) was <3.0%. Also, in experiment [2], the “Concentration” value stood at 100 ng/mL.
On to `O=C(c1cccc2ccccc12)c1c[nH]c2ccccc12` [N-desalkyl JWH-018, 3-(1-naphthoyl) indole], for which the “Concentration” value in experiment [2] was 100 ng/mL.
For `CCCCCn1cc(C(=O)c2ccc(OC)cc2)c2ccccc21` [RCS 4], the “% B/BO” value in experiment [1] (setting [3]) is listed as 80.02%. Also, the “IC50” value in experiment [1] (setting [4]) was >0.1 µg/mL. Further, in experiment [1] (setting [5]), the “% Cross-reactivity (CR)” value is on record as <3.0%. In experiment [2], the “Concentration” value stood at 100 ng/mL.
In the same order, the values of `COc1ccccc1CC(=O)c1cn(CCC2CCCCC2)c2ccccc12` [RCS 8] are 88.15%, >0.1 µg/mL, <3.0% and 100 ng/mL.
As to `O=C(NC12CC3CC(CC(C3)C1)C2)c1cn(CCCCCF)c2ccccc12` [STS135], the “Concentration” value in experiment [2] worked out at 100 ng/mL.
For `CC(O)CCCn1cc(C(=O)C2C(C)(C)C2(C)C)c2ccccc21` (stereo not shown) [UR144 N-(4-hydroxypentyl) metabolite], in experiment [2], the “% Cross-Reactivity” value is recorded as 107%.
Turning to `CC1(C)C(C(=O)c2cn(CCCCC(=O)O)c3ccccc23)C1(C)C` [UR-144 N-pentanoic acid], in experiment [1] (setting [6]), the “% B/BO” value amounted to 16.8%. For the same compound, the “% Cross-reactivity (CR)” value in experiment [1] (setting [7]) is listed as 100%. Besides, the “IC50” value in experiment [1] (setting [8]) was 0.003484 µg/mL. Further, the “% Cross-Reactivity” value in experiment [2] is given as 100%.
Regarding `CC1(C)C(C(=O)c2cn(CCCCCO)c3ccccc23)C1(C)C` [UR-144 N-pentanol], the “% B/BO” value in experiment [1] (setting [6]) stood at 13.0%. The “% Cross-reactivity (CR)” value in experiment [1] (setting [7]) is 109.2%. Further, the “IC50” value in experiment [1] (setting [8]) amounted to 0.003191 µg/mL. Besides, the “% Cross-Reactivity” value in experiment [2] is reported as 110%.
Taken in the same sequence, the figures for `CC1(C)C(C(=O)c2c[nH]c3ccccc23)C1(C)C` [UR-144 desalkyl] were 38.5%, 18.1%, 0.019207 µg/mL and 13%.
With `C=C(C)C(C)(C)CC(=O)c1cn(CCCCCF)c2ccccc12` [XLR11 Degradant], the “% Cross-Reactivity” value in experiment [2] amounted to 3%.
Still for that read-out and setting: to `CC(O)CCCn1cc(C(=O)C2C(C)(C)C2(C)C)c2ccccc21` (stereo not shown) [XLR11 N-(4-hydroxypentyl) metabolite] belongs 2%.
